Laboratory results as given in patent US8426407B2, “Preparation of 1-(substituted aryl)-5-trifluoromethyl-2-(1H)pyridone compounds and salts thereof and their applications” (Central South University, priority 2009, dated 2013).

Columns and labels:
[1] = system: NIH3T3 fibroblasts; experiment: Inhibition test of compounds on NIH3T3 fibroblasts (MTT method); assay type: cell-based; conditions: for Multiple: multiple of activity versus fluorofenidone from IC50 values; for IC50: MTT, relative to fluorofenidone on a certain plate
Experimental: Inhibition Test of Compounds on NIH3T3 Fibroblasts
An MTT method is used and comprises steps of: culturing cells in DMEM culture medium including 5% calf serum and preparing the cells into cell suspension of 3×10^4/ml; inoculating in 96-well plate according to 100 μl/well; transferring new culture medium including compounds with different concentration, fluorofenidone and 1% calf serum after cells are adhered, wherein three repeated wells are provided for each concentration; respectively adding 100 μl of MTT solution in each well after 48 hours and 72 hours of administrating (the culture medium is prepared into 5 mg/ml and kept in dark after filtering), sucking out MTT after 4 hours; adding 150 μl of DMSO which is the dissolving liquid of MTT; after 10 min and MTT is completely dissolved, measuring OD value by ELISA reader; calculating IC50 values of fluorofenidone and measured compounds according to inhibition ratio; calculating multiple of activities of measured compounds and fluorofenidone according to IC50 values of fluorofenidone and measured compounds; and obtaining relative IC50 value of measured compounds according to multiple and IC50 value of fluorofenidone on a certain plate.

[2] = system: rat unilateral ureteral obstruction renal fibrosis model; experiment: Rat unilateral ureteral obstruction renal fibrosis model; assay type: in vivo
Experimental: Observation of Treatment Effect of Compound 13 in a Rat Unilateral Ureteral Obstruction Renal Fibrosis Model
(1) Randomization: nine rats are divided into three groups at random, namely a normal group (n=3); a model group (n=3) and a treatment group (n=3) treated by compound 13 of 15 mg/kg; three rats are in a hutch; and the experimental animals are adaptively fed for two days. […]
HE stained slices of renal tissues are successively observed in fives fields of view of renal tubulointerstitium on upper left side, upper right side, lower left side, lower right side and middle portion by a low power lens and are evaluated according to eight indexes of renal interstitium lesion: renal tubular epithelial cell vacuolar degeneration, renal tubular ectasia, renal tubular atrophy, red cell cast, protein cast, interstitial edema, interstitial fibrosis and interstitial inflammatory cell infiltration; an average value is calculated as the index of renal tubulointerstitial lesion of the sample; and the evaluation standard is based on the reference of Radford M G Jr, Donadio J V Jr, Bergstralh E J, et al. Predicting renal outcome in IgA nephropathy. […]
Masson staining slices of renal tissues are observed in 20 fields of vision for each sample at random under 400X light microscope; percent of blue-stain collagens in the fields of vision is calculated; an average value is determined after semi-quantitative evaluation: no positive staining, 0; <25%, 1; 25-50%, 2; 50-75%, 3; >75%, 4; and the evaluation standard is based on references. […]

[3] = Mus musculus, NIH3T3, 48 h, 48 hours after administration
[4] = Mus musculus, NIH3T3, 72 h, 72 hours after administration

Row | SMILES | Multiple ([1]; 48 hours) | Multiple ([1]; 72 hours) | IC50 [1, 3] [µM] | IC50 [1, 4] [µM] | Treatment effect on renal fibrosis (conclusion) ([2]; 15 mg/kg) | Score (X ± S), renal interstitium collagens of left kidneys, MASSON staining ([2]; 15 mg/kg intragastric once per day for 12 days, SD rats n=3, model group 2.45 ± 0.38, normal group 0.25 ± 0.00, p < 0.01 vs model) | Score (X ± S), index of renal tubulointerstitial lesions of obstruction kidneys, HE staining ([2]; 15 mg/kg intragastric once per day for 12 days, SD rats n=3, model group 9.00 ± 1.00, normal group 0.33 ± 0.12, p < 0.01 vs model) | IC50 ([1]; 48 hours after administration) [µM] | IC50 ([1]; 72 hours after administration) [µM]
1 | O=c1ccc(C(F)(F)F)cn1-c1ccc(NCCN2CCN(CCO)CC2)cc1Cl [Compound 13, 1-(2-chloro-4-((2-(4-(2-hydroxyethyl)piperazin-1-yl)ethyl)amino)-phenyl)-5-(trifluoromethyl)pyridin-2(1H)-one] | 44.14 | 57.20 | 100 | 62 | can effectively treat renal fibrosis | 1.52 ± 0.16^⋆⋆** | 7.00 ± 0.35^⋆⋆** | – | –
2 | O=c1ccc(C(F)(F)F)cn1-c1ccc(NCCN2CCOCC2)cc1Cl [Compound 11, 1-(2-chloro-4-((2-morpholinylethyl)amino)-phenyl)-5-(trifluoromethyl)pyridin-2(1H)-one] | 25.50 | 62.50 | 174 | 56 | – | – | – | – | –
3 | CN1CCN(CCNc2ccc(-n3cc(C(F)(F)F)ccc3=O)c(Cl)c2)CC1 [Compound 12, 1-(2-chloro-4-((2-(4-methylpiperazin-1-yl)ethyl)amino)phenyl)-5-(trifluoromethyl)pyridin-2(1H)-one] | 13.42 | 33.33 | 330 | 106 | – | – | – | – | –
4 | O=c1ccc(C(F)(F)F)cn1-c1ccc(NCCN2CCCCC2)cc1Cl [Compound 10, 1-(2-chloro-4-((2-(piperidyl-1-yl)ethyl)amino)phenyl)-5-(trifluoromethyl)pyridin-2(1H)-one] | 20.73 | 56.50 | 214 | 62 | – | – | – | – | –
5 | O=c1ccc(C(F)(F)F)cn1-c1ccc(N(CCO)CCO)cc1Cl [Compound 6, 1-(4-(N,N-(2-hydroxyethyl)amino)-2-chlorophenyl)-5-(trifluoromethyl)pyridin-2(1H)-one] | 6.91 | 6.00 | 641 | 587 | – | – | – | – | –
6 | O=c1ccc(C(F)(F)F)cn1-c1ccc(NCCCN2CCCCC2)cc1Cl [Compound 3, 1-(2-chloro-4-((3-piperidin-1-yl)propylamino)phenyl)-5-(trifluoromethyl)pyridin-2(1H)-one] | 18.60 | 54.0 | – | – | – | – | – | 238 | 65
7 | Cl.O=c1ccc(C(F)(F)F)cn1-c1ccc(NCCCN2CCCCC2)cc1Cl [Compound 7, 1-(2-chloro-4-(((3-piperidin-1-yl)propyl)amino)phenyl)-5-(trifluoromethyl)pyridin-2(1H)-one hydrochloride] | 17.09 | 71.17 | 259 | 49 | – | – | – | – | –
8 | CN1CCN(CCCNc2ccc(-n3cc(C(F)(F)F)ccc3=O)c(Cl)c2)CC1 [Compound 1, 1-(2-chloro-4-((3-(4-methylpiperazin-1-yl)propyl)amino)phenyl)-5-(trifluoromethyl)pyridin-2(1H)-one] | 15.50 | 21.60 | 286 | 163 | – | – | – | – | –
9 | O=c1ccc(C(F)(F)F)cn1-c1ccc(NCCOCCO)cc1Cl [Compound 8, 1-(2-chloro-4-((2-(2-hydroxyethoxy)ethyl)amino)phenyl)-5-(trifluoromethyl)pyridin-2(1H)-one] | 9.09 | 10.59 | 487 | 332 | – | – | – | – | –
10 | O=c1ccc(C(F)(F)F)cn1-c1ccc(NCCO)cc1Cl [Compound 5, 1-(2-chloro-4-((2-hydroxyethyl)amino)phenyl)-5-(trifluoromethyl)pyridin-2(1H)-one] | 3.21 | 5.57 | 1380 | 632 | – | – | – | – | –
11 | O=c1ccc(C(F)(F)F)cn1-c1ccc(NCCCN2CCOCC2)cc1Cl [Compound 2, 1-(2-chloro-4-((3-morpholinylpropyl)amino)phenyl)-5-(trifluoromethyl)pyridin-2(1H)-one] | 18.36 | 21.87 | 241 | 161 | – | – | – | – | –
12 | CCCCOCCCNc1ccc(-n2cc(C(F)(F)F)ccc2=O)c(Cl)c1 [Compound 4, 1-(4-((3-butoxypropyl)amino)-2-chlorophenyl)-5-(trifluoromethyl) pyridin-2(1H)-one] | 6.31 | 11.31 | 702 | 311 | – | – | – | – | –
